Results from US20100291236A1, “OSMIUM COMPOUNDS” (THE UNIVERSITY OF WARWICK, priority 2006, published 2010).
“Also recorded” adds a separate entry of the source.

How the values were obtained:
[1] = Stability in isotonic saline solutions; assay type: physicochemical; conditions: after 16 days of storage in the dark
Method: Stability tests on AFAP42, 64, 62, 05, 51 and 65 in isotonic saline solutions were also performed.

[2] = Acidity (pKa / pKa*) of coordinated water, 1H NMR pH* titration; conditions: aqua adduct
Source text: pKa* calculations. […] The chemical shifts of the arene ring protons were plotted against pH*. The pH* titration curves were fitted to the Henderson-Hasselbalch equation, with the assumption that the observed chemical shifts are weighted averages according to the populations of the protonated and deprotonated species.

[3] = tested on: human ovarian A2780 cancer cells; experiment: Cytotoxicity towards A2780 cells, sulforhodamine B (SRB) assay; assay type: cell-based; conditions: Table 7; 24 h exposure, 72 h growth, 2-50 μM; read-out: IC50/μM A2780
Method: (§1) Experimental: Cytotoxicity Towards A2780 and A549 Human Cancer Cells. After plating, human ovarian A2780 cancer cells were treated with Os^II complexes on day 3, and human lung A549 cancer cells on day 2, at concentrations ranging from 2 μM to 50 μM. Solutions of the Os^II complexes were made up in 0.125% DMSO to assist dissolution. Cells were exposed to the complexes for 24 h, washed, supplied with fresh medium, allowed to grow for three doubling times (72 h), and then the protein content measured (proportional to cell survival) using the sulforhodamine B (SRB) assay.
(§2) Cancer Cell Cytotoxicity. After plating, human ovarian A2780 cancer cells were treated with OsII complexes on day 3, and human lung A549 cancer cells on day 2, at concentrations ranging from 0.1 μM to 100 μM. Solutions of the OsII complexes were made up in 0.125% DMSO to assist dissolution. Cells were exposed to the complexes for 24 h, washed, supplied with fresh medium, allowed to grow for three doubling times (72 h), and then the protein content measured (proportional to cell survival) using the sulforhodamine B (SRB) assay.10

[4] = extreme conditions of heating, sonicating, exposure to air and extreme sunlight
Method: Samples are prepared for testing by initially dissolving in 5% DMSO and subsequently diluting down.

[5] = tested on: human ovarian A2780 cancer cells; conditions: Peacock et al, J. Am. Chem. Soc. 2006; said to be erroneous; cited from earlier work
[6] = tested on: A549 human lung and A2780 human ovarian cancer cell lines; experiment: Cytotoxicity in A549 and A2780 cell lines, result not split by cell line; assay type: cell-based
Method: as §1, §2

[7] = tested on: human lung A549 cancer cells; experiment: Cytotoxicity towards A549 cells, sulforhodamine B (SRB) assay; assay type: cell-based; conditions: Table 7; 24 h exposure, 72 h growth, 2-50 μM; read-out: IC50/μM A549
Method: as §1, §2

[8] = Aqueous solubility
[9] = tested on: A2780cisR (with acquired cisplatin resistance); conditions: MTT, 72 hours exposure, 0 to 128 μM
Method: All experiments were made in quadruplicate.
All experiments were performed in quadruplicate.

[10] = Hydrolysis (aquation) kinetics followed by 1H NMR; assay type: physicochemical; conditions: osmium complex versus equivalent ruthenium complex
Method: Hydrolysis. […] The rate of hydrolysis was determined by fitting plots of concentrations (determined by ^1H NMR peak integrals) versus time to a pseudo first-order equation using ORIGIN version 5.0 (Microcal Software Ltd.).

Row | SMILES | Stability of isotonic saline solutions [1] | pKa of water coordinated on hydrolysis (aqua adduct of complex) [2] | IC50 [3] [µM] | Stability of solutions in DMSO-d6 [4] | Activity toward A2780 cells as previously reported [5] | Cytotoxicity, A549 and A2780 [6] | IC50 [7] [µM] | Aqueous solubility [8] | Activity in cisplatin resistant A2780cisR compared with A2780 [9] | Hydrolysis slower than the equivalent ruthenium complex [10] [times]
1 | F[B-](F)(F)F.[Cl][Os-]1[NH2+]CC[NH2+]1.c1ccc(-c2ccccc2)cc1 [AFAP51, [(η^6-bip)Os(en)Cl]BF4] | stable | 6.34 | 7.6 | can decompose | inactive | does show cytotoxicity | 10 | – | – | –
2 | Cc1ccc(C(C)C)cc1.Cc1ccc2c(c1)[S][Os-]([Cl])[S]2.[Na+] (centres unmarked) [AFAP40, [(η^6-p-cym)Os(S2C7H6)Cl]Na] | – | – | – | – | – | showed activity; also recorded: Shows cytotoxicity | – | very poor | – | –
3 | [Cl][Os-]1[NH2+]CC[NH2+]1.c1ccc(-c2ccccc2)cc1 [[(η^6-bip)Os(en)Cl]^+] | – | – | – | – | – | – | – | – | even greater activity in the cisplatin resistant cell line | 40
